Test results published in patent US10085445B2, “Biocorrosion inhibitor for metal” (KURARAY CO., LTD., priority 2013, dated 2018).
In brackets after ≈: the same amount, converted by molar mass.

Experiments:
male CRj:CD(SD) rats = assay: Oral toxicity test (14-day repeated dose); assay type: in vivo, rat; conditions: for NOEL (No Observed Effect Level): oral gavage once per day for 14 days, male rats
Description: A test substance was emulsified and dispersed in 2%-gum arabic aqueous solution (containing 0.5%-Tween80), and forcibly administered to 6-week-old male CRj:CD(SD) rats with an oral gavage needle once per day for 14 days. The body weight variation and general condition were observed during the dosing period. The rats were fasted for one day from the final administration day (with free ingestion of drinking water), and anatomy, collection of blood samples (various blood tests), and mass measurement of the major organs were performed the next day of the final administration. In addition, histopathological examination (optical microscopic observation of HE-stained sliced section) of the liver, kidney, spleen and testis was also performed. The dose was 1000, 250, 60, 15 or 0 mg/k day (administered liquid amount=1 ml/100 g (body weight)/day), and 5 rats were used for each dose.

[1] = test system: Pseudokirchneriella subcapitata; assay: Toxicity test on algae (algae growth inhibitory test, OECD 201); assay type: cell-based; conditions: Selenastrum capricornutum; 72 hr, 23° C., growth inhibition; read-out: ErC50 (72 hr)
Procedure: By reference to the OECD test guideline No. 201, an algae growth inhibitory test of a test substance was performed. To be specific, the following test substance was diluted with a test medium to give a defined dose. A suspension of algae grown to the exponential growth phase by preculture was added at an initial concentration of 1×10^4 cells/ml. After shaking culture in a light irradiation-type bio shaker (Bio Shaker BR-180 LF manufactured by TAITEC) at 23° C., algae cells were counted by a flow cytometer (Cell Lab Quant SC manufactured by BECKMAN COULTER) at 24, 48, and 72 hr from the start of the test, and the growth degree of each test dose was calculated based on the growth degree of the normal control as 100%. Also, ErC50 was calculated from the equation of the approximate curve in a graph plotting the growth inhibitory rate. As a standard substance, potassium dichromate was used.
algae: Pseudokirchneriella subcapitata
test substance (1) and test substance (2), 100, 32, 10, 3.2, 1, 0.32 mg/L (geometric ratio: √{square root over ( )}10) and 0 mg/L (normal control), respectively
standard substance: 3.2, 1, 0.32 mg/L and 0 mg/L (normal control)

[2] = test system: sludge in the sewage treatment plant; assay: Bactericidal test on sludge (MTT method); assay type: cell-based; conditions: 24 hr and 48 hr, about 25° C., visual and MTT
Procedure: Glucose, peptone, and monopotassium dihydrogen phosphate (each 5 g) were dissolved in water (1 L), and adjusted to pH 7.0±1.0 with sodium hydroxide to give synthetic sewer water, to which sludge in the sewage treatment plant in Mizushima area, Kurashiki-shi, Okayama-ken, Japan, was added at 30 ppm based on dry mass, whereby a bacterial culture was prepared. On the other hand, a test substance was diluted with distilled water in 10 phases to a final concentration of 1000-0.004 ppm (geometric ratio=4) on a 24 well microplate, and used as a test solution. Two wells were used for each concentration. As a comparison target, distilled water+bacterial culture was used as “bacterial culture blank”, and distilled water alone was used as “blank”.
The bacterial culture and test solution prepared above were mixed at a volume ratio 1:1, stood in a thermostatic tank at ambient temperature (about 25° C.) for 24 hr and 48 hr, and the level of sludge influence at each concentration of the test substance was visually observed and confirm by the MTT method. MTT reagent is converted by microorganism mitochondria in the sludge, forms formazan and develops a blue color.

SMILES | death case (male CRj:CD(SD) rats; maximum dose of 1000 mg/kg/day, oral, 14 days) | NOEL (No Observed Effect Level) (male CRj:CD(SD) rats) | EC50 [1] | sterilizing concentration [2]
O=CCCCCCCCC=O [NL, 1,9-nonanedial] | death case was not found | 250 mg/kg | – | –
O=CCCCC=O [glutaraldehyde] | – | 5 mg/kg | 9 µg/mL (≈ 89.9 µM) | 63 ppm
